Results reported in patent publication US7223839B2, “Histamine receptor H3 polynucleotides” (Merck & Co., Inc., priority 2001, dated 2007).

Key:
H3g receptor variant = H3g receptor variant (Homo sapiens, UniProt Q9Y5N1, DEL7-42); settings: COS-7 cells transfected with H3g; 1 μM BODIPY-L-Histamine or Fluorescein Histamine in PBS, 37° C., 30 min; compared with H3a wild type
Method: (§1) The full length wild type receptor (H3a) and receptor variants H3g and H3h, as well as the variant H3b (which contains the 240 base, 80 amino acid deletion in intracellular loop 3 (i3) but not the N-terminal 108 base, 36 amino acid deletion), were cloned in pCDNA3.0 eukaryotic expression vector for expression in COS-7 cells. The COS-7 cells grown in culture chambers were transfected with 2 μg of plasmid DNA containing one of the H3 receptor or receptor variants with superfect (Qiagen) transfection reagent.
(§2) Binding of Histamine to receptor or receptor variant was determined by BODIPY-L-Histamine or Fluorescein Histamine (Molecular Probes). Briefly, the transfected cells were washed with PBS and 1 μM of BODIPY-L-Histamine or Fluorescein Histamine in PBS was added to the cells and incubated at 37° C. for 30 min. Unbound fluorescent labeled histamine was washed in cold PBS and the slides were examined immediately under a fluorescent microscope.

H3h receptor variant = H3h receptor variant (Homo sapiens, UniProt Q9Y5N1, DEL7-42); settings: COS-7 cells transfected with H3h; 1 μM BODIPY-L-Histamine or Fluorescein Histamine in PBS, 37° C., 30 min; compared with H3a wild type
Method: as §1, §2

H3b variant = H3b variant (Homo sapiens, UniProt Q9Y5N1, E19D); settings: COS-7 cells transfected with H3b; 1 μM BODIPY-L-Histamine or Fluorescein Histamine in PBS, 37° C., 30 min; compared with H3a wild type
Method: as §1, §2

Sequence of H3h receptor variant (Q9Y5N1 with tags, fused parts or gaps isoform Q9Y5N1-3 DEL7-42): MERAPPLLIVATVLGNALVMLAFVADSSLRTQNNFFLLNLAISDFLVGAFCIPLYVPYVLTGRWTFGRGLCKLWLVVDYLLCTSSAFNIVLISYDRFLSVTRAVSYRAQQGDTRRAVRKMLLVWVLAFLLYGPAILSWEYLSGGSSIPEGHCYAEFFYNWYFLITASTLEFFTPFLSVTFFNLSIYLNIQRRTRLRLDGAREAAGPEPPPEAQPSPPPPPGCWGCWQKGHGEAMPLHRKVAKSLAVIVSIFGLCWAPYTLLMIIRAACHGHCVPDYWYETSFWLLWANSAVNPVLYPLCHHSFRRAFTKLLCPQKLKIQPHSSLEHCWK
Sequence of H3b variant (Q9Y5N1 1-365 isoform Q9Y5N1-3 E19D): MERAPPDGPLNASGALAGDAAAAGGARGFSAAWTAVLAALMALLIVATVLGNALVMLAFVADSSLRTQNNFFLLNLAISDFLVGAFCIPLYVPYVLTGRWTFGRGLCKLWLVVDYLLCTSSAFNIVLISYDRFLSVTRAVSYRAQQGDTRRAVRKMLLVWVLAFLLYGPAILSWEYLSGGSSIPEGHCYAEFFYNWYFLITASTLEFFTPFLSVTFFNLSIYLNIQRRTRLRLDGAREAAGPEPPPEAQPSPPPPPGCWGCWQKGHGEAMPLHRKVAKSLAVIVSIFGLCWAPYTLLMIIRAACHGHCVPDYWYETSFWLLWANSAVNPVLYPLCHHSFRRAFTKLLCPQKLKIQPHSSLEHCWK
Sequence of H3g receptor variant (Q9Y5N1 with tags, fused parts or gaps DEL7-42): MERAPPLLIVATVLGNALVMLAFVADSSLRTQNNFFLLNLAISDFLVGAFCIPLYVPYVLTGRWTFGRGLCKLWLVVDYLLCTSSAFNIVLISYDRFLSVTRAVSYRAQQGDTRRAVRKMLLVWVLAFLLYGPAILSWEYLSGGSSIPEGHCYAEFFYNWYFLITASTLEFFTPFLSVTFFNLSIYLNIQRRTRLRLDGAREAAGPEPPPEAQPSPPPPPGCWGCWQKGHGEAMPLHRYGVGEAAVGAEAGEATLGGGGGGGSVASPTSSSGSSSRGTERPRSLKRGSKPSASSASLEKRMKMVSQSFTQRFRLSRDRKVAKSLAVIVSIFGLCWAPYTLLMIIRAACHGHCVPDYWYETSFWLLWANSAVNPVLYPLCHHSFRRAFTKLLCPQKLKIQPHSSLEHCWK

## NCCc1c[nH]cn1 [histamine]
H3g receptor variant
  histamine binding: comparable to the cell transfected with the H3a wild type receptor
H3h receptor variant
  histamine binding: comparable to the cell transfected with the H3a wild type receptor
H3b variant
  histamine binding: comparable to the cell transfected with the H3a wild type receptor
